Measured values: US20250302765A1, “TRIACETYL ANDROGRAPHOLIDE NANOCRYSTAL AND PREPARATION METHOD AND APPLICATION THEREOF” (Henan University, priority 2024, published 2025)

Columns and labels:
[1] = in vivo; cited from earlier work
[2] = tested on: rabbits with endotoxic shock; conditions: serums of rabbits with endotoxic shock; cited from earlier work
[3] = design: species or system SD rats; conditions: rat, in vivo, po, 200 mg/kg
Protocol: The triacetyl andrographolide nanocrystal obtained in Example 1 was adopted, and a total of 12 SD rats were used as test objects (half female and half male, 200±20 g).
The rats were randomly divided into 2 groups (n=6, half female and half male) by body weight before a test was started. The test was carried out after fasting without water-deprivation for 12 h, one group was fed with a triacetyl andrographolide active pharmaceutical ingredient suspension (dosage of 200 mg/kg) via intragastric administration, and the other group was fed with a triacetyl andrographolide nanocrystal suspension (50 mg/kg by triacetyl andrographolide) via intragastric administration.
With an active pharmaceutical ingredient as reference, relative bioavailability of the triacetyl andrographolide nanocrystal was calculated according to the following formula:
[formula] • where AUC0-t, nanocrystal and AUC0-t, active pharmaceutical ingredient corresponded to areas under the plasma concentration-time curves at a moment 0-t of the triacetyl andrographolide nanocrystal and the active pharmaceutical ingredient respectively; and
Doseactive pharmaceutical ingredient and Dosenanocrystal corresponded to intragastric administration dosages of the triacetyl andrographolide active pharmaceutical ingredient and the nanocrystal respectively.
• where MRT(0-t) is a mean value of in-vivo retention time of drug molecules, representing time required for eliminating 63.2% of drugs in vivo; • T1/2 is a terminal elimination half-life, which is time required for a terminal phase plasma concentration to decrease by half; • Tmax is time required to reach a peak concentration of drug after administration, this parameter reflects a speed at which a drug enters the body, and the faster the absorption rate, the shorter the time to peak; • Cmax is a peak concentration of drug, the highest value of a plasma concentration occurring after administration, and this parameter is an important indicator reflecting a rate and degree of drug absorption in the body; • Vd is a proportionality constant between a drug dosage in the body and a plasma concentration when a drug reaches dynamic equilibrium in the body, usually with Las the unit, and this parameter reflects the degree of a distribution range of the drug in the body, with higher values indicating the wider distribution; and an apparent volume of distribution is numerically obtained by a ratio of a clearance rate to a terminal elimination rate; • F is bioavailability, a measure for a speed and degree at which a drug is absorbed into blood circulation, and is an important indicator for evaluating a degree of drug absorption; and the bioavailability may be divided into absolute bioavailability and relative bioavailability, the former is used to compare an absorption difference between two administration routes, while the latter is used to evaluate an absorption difference between two preparations; and • CL is a clearance rate, a value of an apparent volume of distribution of drugs cleared from the body per unit time, usually with L/h as the unit, and this parameter is an important parameter reflecting the body's drug disposal characteristics and is closely related to physiological factors; and the clearance rate is obtained according to a ratio of a dosage to AUC(0-∞).

[4] = In-vitro release degree in simulated pulmonary fluid (dialysis bag, HPLC); type: physicochemical; conditions: simulated pulmonary fluid pH 7.4, 37° C.
Protocol: With the triacetyl andrographolide nanocrystal prepared in Example 1 as an experimental subject, an activated dialysis bag with a molecular weight cut-off of 8000-14000 Da was taken, 5 mL of a simulated pulmonary fluid was added into the dialysis bag, the triacetyl andrographolide nanocrystal (0.5 mg by triacetyl andrographolide) was precisely weighed and dispersively suspended in the above simulated pulmonary fluid, two ends were tightened, then the dialysis bag was put into a conical flask containing 100 mL of a simulated pulmonary fluid in-vitro release medium (composition of the medium as shown in Table 1), the conical flask was placed in a constant-temperature gas bath shaker (37° C., 120 r/min), 2 mL of a released liquor was taken at each of different time points (0.5 h, 1 h, 2 h, 4 h, 6 h, 8 h, 12 h, 24 h, 36 h and 48 h) and was filtered through a 0.22 μm filter membrane, subsequence filtrates were taken to determine drug concentrations by adopting an HPLC method, and at the same time, the release medium was supplemented with 2 mL of an isothermal simulated pulmonary fluid. A cumulative release percentage was calculated according to determined results, and a release curve of the nanocrystal was drawn. […]

[5] = tested on: LPS-induced RAW264.7 cell; conditions: supernatant of LPS-induced RAW264.7 cell culture fluid; cited from earlier work

## C=C1CC[C@@H]2[C@](C)(COC(C)=O)[C@H](OC(C)=O)CC[C@@]2(C)[C@@H]1C/C=C1/C(=O)OC[C@H]1OC(C)=O [active pharmaceutical ingredient, triacetyl andrographolide]
[1]
  absolute bioavailability: 7.19%
  absolute bioavailability relative to that of andrographolide: more than 7 times
[2]
  content of IL-1β: can reduce
  content of TNF-α: can reduce
[3]
  AUC(0-t): 1924 ± 277.9 ng·h/mL
  CL/F: 2000 mL/min/kg
  Cmax: 495.1 ± 172.6 ng/mL
  MRT(0-t): 8.07 ± 0.22 h
  T1/2: 4.79 ± 1.81 h
  Tmax: 6.67 ± 0.47 h
  Vd: 800 ± 360 L/kg
[4]; 12 h
  cumulative release percentage: 39%
[4]; 48 h
  cumulative release percentage: 42%
[5]
  content of IL-1β: can reduce
  content of TNF-α: can reduce
